# Columns and labels:
# CLK2 = target: T1, CLK2 (Homo sapiens, UniProt P49760); assay: NanoBRET dose-response CLK2; format: cell-based; conditions: highest concentration tested 30 μM
# T1 construct: expressed in transfected cells; host or cells: HEK293
# Multi-dose PK study = format: in vivo; conditions: Balb/c mice, 30 mg/kg p.o. every 12 h; total plasma concentration factored by fu
# Experimental: In the multi-dose PK study, three male Balb/c mice (6–8 weeks old, 20–30 g) were dosed via oral (p.o.) administration of four doses of compound 2 (30 mg/kg) as a 10 mL/kg volume of 3 mg/mL solution in DMSO/PEG-400/Water (v/v/v, 10:30:60) every 12 h. At 2, 6, 12, 14, 24, 26, 36, 38, and 48 h after the first dose, 0.025 mL of blood was collected from the dorsal metatarsal vein at each time point. Each blood sample was transferred into a plastic microcentrifuge tube containing EDTA-K2 anticoagulant and mixed well with the anticoagulant, then placed on ice prior to centrifugation at 4000× g for 5 min at 4 °C to obtain plasma. The samples were stored in a freezer at −75 ± 15 °C prior to analysis. […] The final compound concentration was calculated by multiplying the detected concentration by a dilution factor of four.
# Concentrations of the test compound in the plasma samples were determined using a Prominence LC-MS/MS system with a DGU-20A5R(C) degasser, LC-30AD pump, CBM-20A system controller, SIL-20AC HT autosampler; Rack changer II, HALO 90A ES-CN (2.7 μm, 2.1 × 50 mm) column, and AB Sciex Triple Quan 5500 LC/MS/MS instrument. […] After centrifugation at 4 °C and 4000 rpm for 15 min, the supernatant was diluted with ultrapure water at a ratio of 1:2 (v/v, 1:2), then 20 µL of diluted supernatant was injected into the LC/MS/MS system for quantitative analysis. […]
# [1] = Liver microsomal stability, mouse; format: in vitro ADME; conditions: male, CD-1, pH 7.4, mouse liver microsomes, five time points over 1 h, read-out: MLM CLint
# Experimental: Compounds 1 ([…] DMSO stock solutions) were diluted to 2.5 mM with DMSO and again to 0.5 mM with MeCN to give a final solution containing a 0.5 mM compound in 1:4 DMSO/MeCN. Liver microsomes from male CD-1 mice were sourced from Xenotech (Kansas City, KS, USA). A reaction plate was prepared by adding 691.25 μL and prewarmed (37 °C) microsomal solution (0.63 mg/mL protein and 1.3 mM EDTA in potassium phosphate buffer made by mixing ~250 mL of 100 mM K2HPO4 with ~65mL of KH2PO4 until the buffer reaches a pH of 7.4) to an empty well of a 96-well plate and maintained at 37 °C. […] The stability of the compound was calculated as the percentage of the unchanged parent remaining at T = 30 min relative to the peak area at T = 0 min.
# To determine CLint, aliquots of 50 μL were taken from the reaction solution at 0, 15, 30, 45, and 60 min. […] Peak areas were determined from extracted ion chromatograms and the slope value, k, was determined by linear regression of the natural logarithm of the remaining percentage of the parent drug vs. incubation time curve. The intrinsic clearance (CLint in μL/min/mg) was calculated using the relationship CLint = kV/N where V is the incubation volume and N is the amount of protein per well.
# T1 sequence (P49760 whole entry): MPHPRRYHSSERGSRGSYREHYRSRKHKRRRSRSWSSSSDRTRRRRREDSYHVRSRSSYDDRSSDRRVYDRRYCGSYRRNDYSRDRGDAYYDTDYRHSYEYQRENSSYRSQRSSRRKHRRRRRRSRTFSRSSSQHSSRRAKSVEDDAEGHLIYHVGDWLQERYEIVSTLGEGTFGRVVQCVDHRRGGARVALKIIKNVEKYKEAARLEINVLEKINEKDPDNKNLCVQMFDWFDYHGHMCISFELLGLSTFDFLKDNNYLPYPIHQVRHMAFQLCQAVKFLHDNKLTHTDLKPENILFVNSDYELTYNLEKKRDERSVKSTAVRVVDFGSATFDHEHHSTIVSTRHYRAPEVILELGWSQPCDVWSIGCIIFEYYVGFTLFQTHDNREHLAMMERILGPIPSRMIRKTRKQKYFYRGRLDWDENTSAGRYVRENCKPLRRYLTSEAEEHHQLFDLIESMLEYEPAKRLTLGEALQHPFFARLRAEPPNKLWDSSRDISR
smiles,measurement,setting,value
"CCC(=O)Nc1cc(Nc2cc(NC3CC3)n3ncc(C#N)c3n2)c(F)cc1N1CCC[C@H](NC)C1 [Compound 2, (S)-N-(5-((3-cyano-7-(cyclopropylamino)pyrazolo[1,5-a]pyrimidin-5-yl)amino)-4-fluoro-2-(3-(methylamino)piperidin-1-yl)phenyl)propionamide]",IC50,CLK2,> 30 µM
same,free plasma Cpeak concentration,Multi-dose PK study,120 to 190 nM
same,CLint scaled at 5 μM,[1],48.5 mL/min/kg
